Series [1] deals with T1, Solute carrier family 22 member 6 (Homo sapiens, UniProt Q4U2R8).
T1 sequence (Q4U2R8 whole entry): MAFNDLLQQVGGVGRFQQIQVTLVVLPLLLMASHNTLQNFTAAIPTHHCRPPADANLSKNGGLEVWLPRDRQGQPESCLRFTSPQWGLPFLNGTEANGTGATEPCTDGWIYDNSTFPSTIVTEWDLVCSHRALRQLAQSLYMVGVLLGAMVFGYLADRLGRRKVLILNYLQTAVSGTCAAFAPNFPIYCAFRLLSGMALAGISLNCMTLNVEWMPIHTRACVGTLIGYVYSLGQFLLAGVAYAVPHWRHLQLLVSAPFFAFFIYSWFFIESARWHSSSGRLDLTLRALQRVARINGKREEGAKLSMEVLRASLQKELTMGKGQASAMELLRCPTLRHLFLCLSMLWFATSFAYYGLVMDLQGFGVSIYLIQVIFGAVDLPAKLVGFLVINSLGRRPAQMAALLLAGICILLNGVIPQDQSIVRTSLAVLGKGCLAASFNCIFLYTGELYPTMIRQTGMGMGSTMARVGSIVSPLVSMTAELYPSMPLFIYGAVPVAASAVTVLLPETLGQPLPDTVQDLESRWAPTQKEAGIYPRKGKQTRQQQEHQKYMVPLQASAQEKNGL
Kind of series: TP_TRANSPORTER: inhibition of PAH uptake (PAH: 50 uM, BCG: 1000 uM) in Xenopus laevis oocytes. It is filed as functional, cell-based. As to conditions: oocyte.

The target of series [2] is T1, Solute carrier family 22 member 6. Kind of series: TP_TRANSPORTER: inhibition of PAH uptake (PAH: 50 uM, alpha-KG: 1000 uM) in Xenopus laevis oocytes. The class given is functional, cell-based. As to conditions: oocyte.
The target is the same in series [3]. Briefly: TP_TRANSPORTER: inhibition of PAH uptake (PAH: 50 uM, 2,4-D: 1000 uM) in Xenopus laevis oocytes. It is filed as functional, cell-based. As to conditions: oocyte.
Series [4] shares this target. Kind of series: (§1) TP_TRANSPORTER: uptake in Xenopus laevis oocytes. It is filed as functional, cell-based. To be noted: oocyte.
In series [5] the target is T2, Solute carrier family 22 member 6 (Rattus norvegicus, UniProt O35956).
T2 sequence (O35956 whole entry): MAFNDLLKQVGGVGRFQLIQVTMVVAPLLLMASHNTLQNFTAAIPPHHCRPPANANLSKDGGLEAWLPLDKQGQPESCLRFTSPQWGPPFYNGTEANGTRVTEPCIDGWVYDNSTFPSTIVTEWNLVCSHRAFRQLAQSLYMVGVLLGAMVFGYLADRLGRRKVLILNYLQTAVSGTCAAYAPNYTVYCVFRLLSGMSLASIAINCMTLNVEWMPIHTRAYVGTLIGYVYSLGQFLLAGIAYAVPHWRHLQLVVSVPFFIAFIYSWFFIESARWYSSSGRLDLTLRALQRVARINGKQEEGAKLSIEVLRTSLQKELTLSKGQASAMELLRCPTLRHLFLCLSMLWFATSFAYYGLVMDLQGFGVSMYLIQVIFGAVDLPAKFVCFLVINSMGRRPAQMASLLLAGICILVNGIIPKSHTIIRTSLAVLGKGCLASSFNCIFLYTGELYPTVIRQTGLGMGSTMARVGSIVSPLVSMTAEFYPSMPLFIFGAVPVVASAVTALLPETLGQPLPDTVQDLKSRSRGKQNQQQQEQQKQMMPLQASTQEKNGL
The series is described as §1. The class given is functional, cell-based. As to conditions: oocyte.

Substrate in series [6]: Nc1ccn(C[C@@H](CO)OCP(=O)(O)O)c(=O)n1
The description is as §1. The class given is functional, cell-based, Oocyte.

Substrate in series [7]: Nc1ncnc2c1ncn2CCOCP(=O)(O)O
The series is described as §1. It is filed as functional, cell-based, Oocyte.

`Cc1c(C2(c3cc(Br)c(O)c(Br)c3C)OS(=O)(=O)c3ccccc32)cc(Br)c(O)c1Br` [BROMCRESOL GREEN]: the Activity entry in series [1] is “inhibitor [(at a rough estimate) <5 % of control]”.

As for `O=C(O)CCC(=O)C(=O)O` [ALPHA-KETOGLUTARIC ACID], in series [2], the Activity result was “inhibitor [(at a rough estimate) 5 % of control]”. With `O=C(O)COc1ccc(Cl)cc1Cl` [2,4-DICHLOROPHENOXYACETIC ACID], in series [3], the Activity entry was “inhibitor [(at a rough estimate) <5 % of control]”. On to `Nc1nc(N)c2ccn(CCOCP(=O)(O)O)c2n1`, for which the Activity result in series [4] and in series [5] was “substrate [+]” each time. On to `Nc1nc2c(ncn2CCOCP(=O)(O)O)c(=O)[nH]1` [GS-438], for which the Activity entry in series [4] and in series [5] was “substrate [+]” in each case.

B1: Solute carrier family 22 member 6 (Rattus norvegicus) (protein)
chain: T2 sequence (O35956 whole entry)
As to B1, the Michaelis constant (Km) worked out at 238 µM in series [6] and 270 µM in series [7].

B2: Solute carrier family 22 member 6 (Homo sapiens) (protein)
chain: T1 sequence (Q4U2R8 whole entry)
Regarding B2, the Km in series [6] amounted to 46 µM; in series [7], 30 µM.

The Km is the concentration of substrate that gives half-maximal velocity.

For the origin of these results see ChEMBL document CHEMBL2074319, “The antiviral nucleotide analogs cidofovir and adefovir are novel substrates for human and rat renal organic anion transporter 1” (Mol Pharmacol, 1999).
